# Experimental data from patent US20210275621A1, “COMPOSITION FOR PREVENTING, ALLEVIATING, IMPROVING, OR TREATING THE FEMALE HORMONE CONTROLLING DISORDER SYNDROME OR SYMPTOMS COMPRISING GREEN TEA EXTRACT WHICH HAS MODIFIED AMOUNTS OF INGREDIENTS” (AMOREPACIFIC CORPORATION, priority 2020, published 2021).
# Tests used:
# Assay type in all cases: cell-based
# [1] = tested on: MCF-7 cells (breast cancer cells); assay: MCF-7 breast cancer cell growth (cell counting); settings: 100 pM, 48 hours; FIG. 7
# estrogen receptor ERα = target: T1, estrogen receptor ERα (Homo sapiens, UniProt P03372); assay: Human ERα/β reporter assay panel (ERE-luc), ERα; settings: 1 μg/mL, 24 hours; FIG. 6
# T1 construct: host or cells: reporter cells included in the purchased panel
# T1 sequence (P03372 1-595): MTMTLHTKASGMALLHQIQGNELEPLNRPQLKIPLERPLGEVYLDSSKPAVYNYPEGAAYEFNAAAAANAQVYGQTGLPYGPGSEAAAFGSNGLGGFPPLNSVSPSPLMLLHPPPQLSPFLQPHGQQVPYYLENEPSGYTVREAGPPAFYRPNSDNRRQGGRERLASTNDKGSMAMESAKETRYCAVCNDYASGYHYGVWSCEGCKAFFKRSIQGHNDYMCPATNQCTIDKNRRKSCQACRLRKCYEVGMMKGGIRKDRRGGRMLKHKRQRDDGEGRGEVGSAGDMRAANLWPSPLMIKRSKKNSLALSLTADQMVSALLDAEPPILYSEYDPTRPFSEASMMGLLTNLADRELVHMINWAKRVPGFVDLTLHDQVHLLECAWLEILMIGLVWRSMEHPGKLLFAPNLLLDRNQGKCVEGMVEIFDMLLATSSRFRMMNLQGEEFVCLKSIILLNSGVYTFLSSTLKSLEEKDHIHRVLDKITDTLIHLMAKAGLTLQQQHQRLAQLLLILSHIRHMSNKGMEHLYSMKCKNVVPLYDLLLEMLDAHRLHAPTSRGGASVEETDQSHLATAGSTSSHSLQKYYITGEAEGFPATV
# Description: (§1) For evaluation of the effect of activating estrogen receptors alpha and beta (ERα/β) of the notified green tea extract, the high-temperature-processed green tea extract and theanine depending on the weight ratio of GCG:EGCG, a human ERα/β reporter assay panel (IB00421-48P, Indigo Bioscience) was treated with 20 μg/mL sample 1 (notified green tea extract), 20 μg/mL sample 2 (high-temperature-processed green tea extract), 20 μg/mL sample 3, or 20 μg/mL sample 4 of Preparation Example 1 or 2, or 1 μg/mL theanine of Preparation Example 3, for 24 hours and then the increased activity of the estrogen receptors ERα and ERβ was analyzed.
# (§2) Specifically, ERα and ERβ are overexpressed and the ERE-luc reporter gene is included in the cells included in the human ERα/β reporter assay panel. If the activity of the estrogen receptors is increased upon treatment with the test substance, ERα and ERβ are bound to ERE and the expression of luciferase is induced. Therefore, the activity of ERα and ERβ can be determined by measuring light emission from the cells.
# estrogen receptor ERβ = target: T2, estrogen receptor ERβ (Homo sapiens, UniProt Q92731); assay: Human ERα/β reporter assay panel (ERE-luc), ERβ; settings: 1 μg/mL, 24 hours; FIG. 6
# T2 construct: host or cells: reporter cells included in the purchased panel
# T2 sequence (Q92731 whole entry): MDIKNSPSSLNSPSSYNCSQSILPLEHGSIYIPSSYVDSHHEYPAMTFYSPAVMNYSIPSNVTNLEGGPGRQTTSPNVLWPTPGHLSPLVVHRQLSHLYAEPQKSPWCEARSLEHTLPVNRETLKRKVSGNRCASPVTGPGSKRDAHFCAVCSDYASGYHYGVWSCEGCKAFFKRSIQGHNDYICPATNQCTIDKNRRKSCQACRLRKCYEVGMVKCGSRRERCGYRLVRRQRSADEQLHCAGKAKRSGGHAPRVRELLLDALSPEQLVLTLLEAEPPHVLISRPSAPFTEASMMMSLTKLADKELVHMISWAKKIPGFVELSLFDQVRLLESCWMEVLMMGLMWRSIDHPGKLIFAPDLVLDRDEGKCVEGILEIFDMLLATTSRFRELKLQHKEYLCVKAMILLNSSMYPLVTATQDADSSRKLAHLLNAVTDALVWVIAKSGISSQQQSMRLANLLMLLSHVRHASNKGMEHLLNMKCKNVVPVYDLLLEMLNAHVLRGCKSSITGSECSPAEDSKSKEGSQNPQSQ
# Description: as §1, §2
activity of estrogen receptor ERα (luciferase activity) (estrogen receptor ERα),activity of estrogen receptor ERβ (luciferase activity) (estrogen receptor ERβ),SMILES,growth of MCF-7 cells (number of cells) [1]
–,–,C[C@]12CC[C@@H]3c4ccc(O)cc4CC[C@H]3[C@@H]1CC[C@@H]2O [17b-estradiol],promoted significantly
no receptor-activating effect,no receptor-activating effect,"CCNC(=O)CC[C@H](N)C(=O)O [theanine, L-theanine]",–
